# Source: patent US4358441A, “Nicotinic derivatives of glucosamine and related pharmaceutical compositions” (Laboratorio Guidotti & C. S.p.A., priority 1980, dated 1982)
# Key:
# plasma levels of FFA = experiment: Effect of oral administration on plasma levels of FFA in the empty rat; conditions: for Percent variations of plasma FFA with respect to the controls: empty rat
# in vivo [1] = conditions: rat, po, 100 mg/kg
# [2] = Plasma levels (kinetics) of free nicotinic acid after oral administration in the rat; conditions: 100 mg/kg p.o.
# [3] = tested on: plasma levels of free glycerol; experiment: Effect of oral administration on plasma levels of free glycerol in the empty rat; type: in vivo, rat (COBS CD (SD) BR male); conditions: for Percent variations of plasma free glycerol with respect to the controls: empty rat; for Activity on free glycerol: 30 mg/kg oral; for Activity on free glycerol / Time within which the effect on free glycerol disappears: rat; for Time within which the effect on free glycerol disappears: 100 mg/kg oral
# [4] = tested on: plasma levels of cholesterol; experiment: Effect of oral administration on plasma levels of cholesterol in the empty rat; type: in vivo, rat (COBS CD (SD) BR male); conditions: for Percent variations of plasma cholesterol with respect to the controls: 100 mg/kg oral referred to nicotinic acid, empty rat
# [5] = tested on: plasma levels of triglycerides; experiment: Effect of oral administration on plasma levels of triglycerides in the empty rat; type: in vivo, rat (COBS CD (SD) BR male); conditions: for Percent variations of plasma triglycerides with respect to the controls: empty rat; for Time within which the effect on triglycerides disappears: rat
# [6] = Acute toxicity (LD50) in rats of both sexes, oral and intraperitoneal route; conditions: rat, in vivo, LD50, rat
# in vivo [7] = conditions: rat
# rats of both sexes = experiment: Acute toxicity (LD50) in rats of both sexes, oral and intraperitoneal route; conditions: rat
# [8] = 30 mg/kg oral referred to nicotinic acid, 1 h
# [9] = 30 mg/kg oral referred to nicotinic acid, 2 h
# [10] = 30 mg/kg oral referred to nicotinic acid, 4 h
# [11] = 30 mg/kg oral referred to nicotinic acid, 6 h
# [12] = 100 mg/kg oral referred to nicotinic acid, 2 h
# [13] = 100 mg/kg oral referred to nicotinic acid, 4 h
# [14] = 100 mg/kg oral referred to nicotinic acid, 6 h
# [15] = 100 mg/kg oral referred to nicotinic acid, 8 h
# [16] = 100 mg/kg oral referred to nicotinic acid, 10 h
# [17] = 100 mg/kg oral referred to nicotinic acid, 16 h
# [18] = 100 mg/kg oral referred to nicotinic acid, 24 h
# [19] = 30 mg/kg oral referred to nicotinic acid, 8 h
# [20] = 30 mg/kg oral referred to nicotinic acid, 10 h
# [21] = 30 mg/kg oral referred to nicotinic acid, 12 h
# [22] = 30 mg/kg oral referred to nicotinic acid, 16 h
# [23] = 100 mg/kg oral referred to nicotinic acid, 32 h
smiles,measurement,setting,value
"O=C(O)c1cccnc1 [NICOTINIC ACID, nicotinic acid]",Percent variations of plasma FFA with respect to the controls,plasma levels of FFA; [8],-81%
same,Percent variations of plasma FFA with respect to the controls,plasma levels of FFA; [9],-43%
same,Percent variations of plasma FFA with respect to the controls,plasma levels of FFA; [10],+23%
same,Percent variations of plasma FFA with respect to the controls,plasma levels of FFA; [11],+11%
same,FFA rebound,"plasma levels of FFA; 30 mg/kg oral, rat",causes FFA rebound in the fourth hour
same,Percent variations of plasma FFA with respect to the controls,plasma levels of FFA; [12],-77%
same,Percent variations of plasma FFA with respect to the controls,plasma levels of FFA; [13],-68%
same,Percent variations of plasma FFA with respect to the controls,plasma levels of FFA; [14],+23%
same,Percent variations of plasma FFA with respect to the controls,plasma levels of FFA; [15],+23%
same,Percent variations of plasma FFA with respect to the controls,plasma levels of FFA; [16],+13%
same,Percent variations of plasma FFA with respect to the controls,plasma levels of FFA; [17],-9%
same,Percent variations of plasma FFA with respect to the controls,plasma levels of FFA; [18],-5%
same,FFA rebound,"plasma levels of FFA; 100 mg/kg oral, rat",eighth
same,Time within which the effect on FFA disappears,"plasma levels of FFA; 100 mg/kg oral, rat",≤ 6 h
same,Tmax,in vivo [1],≤ 30 min
same,concentration at 0.5 h,in vivo [1],108000 ng/mL
same,concentration at 1 h,in vivo [1],106000 ng/mL
same,concentration at 2 h,in vivo [1],98300 ng/mL
same,concentration at 4 h,in vivo [1],10600 ng/mL
same,concentration at 6 h,in vivo [1],760 ng/mL
same,concentration at 8 h,in vivo [1],250 ng/mL
same,concentration at 12 h,in vivo [1],490 ng/mL
same,concentration at 16 h,in vivo [1],120 ng/mL
same,"Peak plasma concentration of free nicotinic acid, times higher than that of niceritrole",[2],about two times higher
same,Percent variations of plasma free glycerol with respect to the controls,[3]; [8],-72%
same,Percent variations of plasma free glycerol with respect to the controls,[3]; [9],-27%
same,Percent variations of plasma free glycerol with respect to the controls,[3]; [10],+16%
same,Percent variations of plasma free glycerol with respect to the controls,[3]; [11],+15%
same,Activity on free glycerol,[3],active only after 1 hour
same,Percent variations of plasma free glycerol with respect to the controls,[3]; [12],-73%
same,Percent variations of plasma free glycerol with respect to the controls,[3]; [13],-71%
same,Percent variations of plasma free glycerol with respect to the controls,[3]; [14],+9%
same,Percent variations of plasma free glycerol with respect to the controls,[3]; [15],+11%
same,Percent variations of plasma free glycerol with respect to the controls,[3]; [16],+16%
same,Percent variations of plasma free glycerol with respect to the controls,[3]; [17],-12%
same,Percent variations of plasma free glycerol with respect to the controls,[3]; [18],-4%
same,Time within which the effect on free glycerol disappears,[3],within the sixth hour
same,Percent variations of plasma cholesterol with respect to the controls,[4]; 4 h,-12%
same,Percent variations of plasma cholesterol with respect to the controls,[4]; 6 h,-12%
same,Percent variations of plasma cholesterol with respect to the controls,[4]; 8 h,-13%
same,Percent variations of plasma cholesterol with respect to the controls,[4]; 10 h,-17%
same,Percent variations of plasma cholesterol with respect to the controls,[4]; 16 h,-14%
same,Percent variations of plasma cholesterol with respect to the controls,[4]; 24 h,-27%
same,Lowering of cholesterolemy,"[4]; 100 mg/kg oral, rat","lowered at the eighth, tenth and twenty fourth hour"
same,Percent variations of plasma triglycerides with respect to the controls,[5]; [8],-49%
same,Percent variations of plasma triglycerides with respect to the controls,[5]; [9],-49%
same,Percent variations of plasma triglycerides with respect to the controls,[5]; [10],+8%
same,Percent variations of plasma triglycerides with respect to the controls,[5]; [11],+17%
same,Time within which the effect on triglycerides disappears,[5]; 30 mg/kg oral,≤ 4 h
same,Percent variations of plasma triglycerides with respect to the controls,[5]; [12],-57%
same,Percent variations of plasma triglycerides with respect to the controls,[5]; [13],-58%
same,Percent variations of plasma triglycerides with respect to the controls,[5]; [14],-59%
same,Percent variations of plasma triglycerides with respect to the controls,[5]; [15],-38%
same,Percent variations of plasma triglycerides with respect to the controls,[5]; [16],+4%
same,Percent variations of plasma triglycerides with respect to the controls,[5]; [17],+21%
same,Percent variations of plasma triglycerides with respect to the controls,[5]; [18],-16%
same,Time within which the effect on triglycerides disappears,[5]; 100 mg/kg oral,within the tenth hour
same,LD50,"[6]; ip, female",296 mg/kg
same,LD50,"[6]; ip, male",328 mg/kg
same,LD50,"[6]; po, female, os",3850 mg/kg
same,LD50,"[6]; po, male, os",3860 mg/kg
"O=C(N[C@H]1C(OC(=O)c2cccnc2)O[C@H](COC(=O)c2cccnc2)[C@@H](OC(=O)c2cccnc2)[C@@H]1OC(=O)c1cccnc1)c1cccnc1 (stereo partly drawn) [GLUN, N-nicotinoyl-glucosamine tetranicotinate]",Percent variations of plasma FFA with respect to the controls,plasma levels of FFA; [8],-33%
same,Percent variations of plasma FFA with respect to the controls,plasma levels of FFA; [9],-67%
same,Percent variations of plasma FFA with respect to the controls,plasma levels of FFA; [10],-3%
same,Percent variations of plasma FFA with respect to the controls,plasma levels of FFA; [11],-16%
same,Depression of plasma FFA,"plasma levels of FFA; 30 mg/kg oral, rat",still active in the second hour
same,Percent variations of plasma FFA with respect to the controls,plasma levels of FFA; [12],-74%
same,Percent variations of plasma FFA with respect to the controls,plasma levels of FFA; [13],-41%
same,Percent variations of plasma FFA with respect to the controls,plasma levels of FFA; [14],-28%
same,Percent variations of plasma FFA with respect to the controls,plasma levels of FFA; [15],-43%
same,Percent variations of plasma FFA with respect to the controls,plasma levels of FFA; [16],-40%
same,Percent variations of plasma FFA with respect to the controls,plasma levels of FFA; [17],-7%
same,Percent variations of plasma FFA with respect to the controls,plasma levels of FFA; [18],-2%
same,Time within which the effect on FFA disappears,"plasma levels of FFA; 100 mg/kg oral, rat",≤ 16 h
same,Percent variations of plasma free glycerol with respect to the controls,[3]; [8],-27%
same,Percent variations of plasma free glycerol with respect to the controls,[3]; [9],-63%
same,Percent variations of plasma free glycerol with respect to the controls,[3]; [10],-7%
same,Percent variations of plasma free glycerol with respect to the controls,[3]; [11],-17%
same,Percent variations of plasma free glycerol with respect to the controls,[3]; [19],-25%
same,Percent variations of plasma free glycerol with respect to the controls,[3]; [20],-4%
same,Percent variations of plasma free glycerol with respect to the controls,[3]; [21],-5%
same,Percent variations of plasma free glycerol with respect to the controls,[3]; [22],+5%
same,Activity on free glycerol,[3],active at the 2nd hour
same,Percent variations of plasma free glycerol with respect to the controls,[3]; [12],-81%
same,Percent variations of plasma free glycerol with respect to the controls,[3]; [13],-47%
same,Percent variations of plasma free glycerol with respect to the controls,[3]; [14],-24%
same,Percent variations of plasma free glycerol with respect to the controls,[3]; [15],-32%
same,Percent variations of plasma free glycerol with respect to the controls,[3]; [16],-41%
same,Percent variations of plasma free glycerol with respect to the controls,[3]; [17],+3%
same,Percent variations of plasma free glycerol with respect to the controls,[3]; [18],0%
same,Percent variations of plasma free glycerol with respect to the controls,[3]; [23],+16%
same,Time within which the effect on free glycerol disappears,[3],within the sixteenth hour
same,Percent variations of plasma cholesterol with respect to the controls,[4]; 4 h,+9%
same,Percent variations of plasma cholesterol with respect to the controls,[4]; 6 h,-4%
same,Percent variations of plasma cholesterol with respect to the controls,[4]; 8 h,-13%
same,Percent variations of plasma cholesterol with respect to the controls,[4]; 10 h,-29%
same,Percent variations of plasma cholesterol with respect to the controls,[4]; 16 h,-53%
same,Percent variations of plasma cholesterol with respect to the controls,[4]; 24 h,-37%
same,Percent variations of plasma cholesterol with respect to the controls,[4]; 32 h,-42%
same,Percent variations of plasma cholesterol with respect to the controls,[4]; 48 h,-29%
same,Cholesterol lowering effect with respect to that of the reference standards,"[4]; 100 mg/kg oral, rat",constantly more relevant
same,Lowering of cholesterolemy,"[4]; 100 mg/kg oral, rat",depresses the cholesterolemy from the eighth to the fortyeighth hour
same,LD50,"in vivo [7]; ip, female",6750 mg/kg
same,LD50,"in vivo [7]; ip, male",6650 mg/kg
same,LD50,"in vivo [7]; po, female, os",> 8000 mg/kg
same,LD50,"in vivo [7]; po, male, os",> 8000 mg/kg
same,Percent variations of plasma triglycerides with respect to the controls,[5]; [8],-2%
same,Percent variations of plasma triglycerides with respect to the controls,[5]; [9],-45%
same,Percent variations of plasma triglycerides with respect to the controls,[5]; [10],-44%
same,Percent variations of plasma triglycerides with respect to the controls,[5]; [11],-41%
same,Percent variations of plasma triglycerides with respect to the controls,[5]; [19],-36%
same,Percent variations of plasma triglycerides with respect to the controls,[5]; [20],-62%
same,Percent variations of plasma triglycerides with respect to the controls,[5]; [21],-31%
same,Percent variations of plasma triglycerides with respect to the controls,[5]; [22],+31%
same,Time within which the effect on triglycerides disappears,[5]; 30 mg/kg oral,≤ 16 h
same,Percent variations of plasma triglycerides with respect to the controls,[5]; [12],-52%
same,Percent variations of plasma triglycerides with respect to the controls,[5]; [13],-65%
same,Percent variations of plasma triglycerides with respect to the controls,[5]; [14],-72%
same,Percent variations of plasma triglycerides with respect to the controls,[5]; [15],-75%
same,Percent variations of plasma triglycerides with respect to the controls,[5]; [16],-65%
same,Percent variations of plasma triglycerides with respect to the controls,[5]; [17],-67%
same,Percent variations of plasma triglycerides with respect to the controls,[5]; [18],3%
same,Percent variations of plasma triglycerides with respect to the controls,[5]; [23],+13%
same,Time within which the effect on triglycerides disappears,[5]; 100 mg/kg oral,within the twenty fourth hour
same,Acute toxicity lower than that of nicotinic acid,rats of both sexes; intraperitoneal route,20 times
same,Acute toxicity lower than that of nicotinic acid,rats of both sexes; oral route,2 times
